Laboratory results taken from the supplement of paper PMC10307832.

Columns and labels:
Experiment in all cases: relative viability (nuclei count vs DMSO), 5 days (fraction); higher = more cells survive
Erlotinib + Tozasertib = compound: C#Cc1cccc(Nc2ncnc3cc(OCCOC)c(OCCOC)cc23)c1 [Erlotinib] + Cc1cc(Nc2cc(N3CCN(C)CC3)nc(Sc3ccc(NC(=O)C4CC4)cc3)n2)n[nH]1 [Tozasertib] (partner 0.1 µM)
In short: (§1)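 The day after seeding in 1536-well plates, lung cancer cell lines were treated by pin tool with a single drug, or with a fixed anchor-drug dose together with five library-drug doses (not always all listed) in √10 steps. After 5 days, a combined fix-and-stain solution (final 0.05% Triton X-100, 1% formaldehyde, 1 ug/ml Hoechst) was added. Nuclei counted on 4× images gave relative viability as treated counts over vehicle counts, reported as the median of duplicate plates.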

Erlotinib + Palbociclib = compound: C#Cc1cccc(Nc2ncnc3cc(OCCOC)c(OCCOC)cc23)c1 [Erlotinib] + CC(=O)c1c(C)c2cnc(Nc3ccc(N4CCNCC4)cn3)nc2n(C2CCCC2)c1=O [Palbociclib] (partner 0.5 µM)
In short: as §1

AT9283 + Crizotinib = compound: O=C(Nc1c[nH]nc1-c1nc2ccc(CN3CCOCC3)cc2[nH]1)NC1CC1 [AT9283] + C[C@@H](Oc1cc(-c2cnn(C3CCNCC3)c2)cnc1N)c1c(Cl)ccc(F)c1Cl [Crizotinib] (partner 1 µM)
In short: as §1

AT9283 + Phenformin = compound: O=C(Nc1c[nH]nc1-c1nc2ccc(CN3CCOCC3)cc2[nH]1)NC1CC1 [AT9283] + N=C(N)NC(=N)NCCc1ccccc1 [Phenformin] (partner 250 µM)
In short: as §1

AT9283 + Olaparib = compound: O=C(Nc1c[nH]nc1-c1nc2ccc(CN3CCOCC3)cc2[nH]1)NC1CC1 [AT9283] + O=C(c1cc(Cc2n[nH]c(=O)c3ccccc23)ccc1F)N1CCN(C(=O)C2CC2)CC1 [Olaparib] (partner 8 µM)
In short: as §1

| Cell Line | relative viability (Erlotinib + Tozasertib; first compound 0.02 µM) | relative viability (Erlotinib + Tozasertib; first compound 0.2 µM) | relative viability (Erlotinib + Tozasertib; first compound 0.6325 µM) | relative viability (Erlotinib + Tozasertib; first compound 2 µM) | relative viability (Erlotinib + Palbociclib; first compound 0.02 µM) | relative viability (Erlotinib + Palbociclib; first compound 0.2 µM) | relative viability (Erlotinib + Palbociclib; first compound 0.6325 µM) | relative viability (Erlotinib + Palbociclib; first compound 2 µM) | relative viability (AT9283 + Crizotinib; first compound 0.003 µM) | relative viability (AT9283 + Crizotinib; first compound 0.03 µM) | relative viability (AT9283 + Crizotinib; first compound 0.09487 µM) | relative viability (AT9283 + Crizotinib; first compound 0.3 µM) | relative viability (AT9283 + Phenformin; first compound 0.003 µM) | relative viability (AT9283 + Phenformin; first compound 0.03 µM) | relative viability (AT9283 + Phenformin; first compound 0.09487 µM) | relative viability (AT9283 + Phenformin; first compound 0.3 µM) | relative viability (AT9283 + Olaparib; first compound 0.003 µM) | relative viability (AT9283 + Olaparib; first compound 0.03 µM) | relative viability (AT9283 + Olaparib; first compound 0.09487 µM) | relative viability (AT9283 + Olaparib; first compound 0.3 µM) |
| --- | --- | --- | --- | --- | --- | --- | --- | --- | --- | --- | --- | --- | --- | --- | --- | --- | --- | --- | --- | --- |
| ChaGo-K-1 | 0.214 | 0.186 | 0.179 | 0.185 | 0.89 | 0.952 | 0.951 | 0.854 | 0.973 | 0.416 | 0.343 | 0.387 | 0.476 | 0.341 | 0.235 | 0.204 | 0.444 | 0.352 | 0.252 | 0.203 |
| NCI-H1915 | 0.45 | 0.405 | 0.408 | 0.262 | 0.522 | 0.526 | 0.599 | 0.502 | 0.842 | 0.826 | 0.226 | 0.255 | 0.362 | 0.342 | 0.174 | 0.168 | 0.266 | 0.228 | 0.17 | 0.143 |
| LU99A | 0.305 | 0.271 | 0.263 | 0.221 | 0.466 | 0.421 | 0.38 | 0.327 | 0.492 | 0.28 | 0.185 | 0.168 | 0.804 | 0.441 | 0.17 | 0.199 | 0.258 | 0.214 | 0.14 | 0.123 |
| LCLC-103H | 0.434 | 0.48 | 0.595 | 0.313 | 0.503 | 0.429 | 0.457 | 0.467 | 1.04 | 0.963 | 0.932 | 0.5 | 0.295 | 0.356 | 0.331 | 0.205 | 0.77 | 0.784 | 0.467 | 0.37 |
| RERF-LC-KJ | 0.55 | 0.53 | 0.44 | 0.381 | 1.02 | 1.01 | 0.93 | 0.759 | 0.788 | 0.526 | 0.293 | 0.23 | 0.408 | 0.364 | 0.25 | 0.242 | 0.962 | 0.485 | 0.267 | 0.237 |
| NCI-H1755 |  | 0.561 | 0.505 | 0.422 | 0.454 | 0.449 | 0.446 | 0.458 | 0.891 | 0.718 | 0.433 | 0.385 | 0.579 | 0.626 | 0.394 | 0.422 | 0.987 | 0.859 | 0.53 | 0.45 |
| NCI-H1734 | 0.259 | 0.238 | 0.273 | 0.273 | 0.346 | 0.342 | 0.372 | 0.41 | 0.725 | 0.335 | 0.246 | 0.216 | 0.334 | 0.278 | 0.243 | 0.203 | 0.643 | 0.414 | 0.293 | 0.259 |
| NCI-H661 | 0.344 | 0.381 | 0.341 | 0.394 | 0.418 | 0.43 | 0.383 | 0.355 | 0.986 | 0.571 | 0.409 | 0.452 | 0.276 | 0.269 | 0.252 | 0.236 | 0.759 | 0.499 | 0.371 | 0.418 |
| NCI-H2009 | 0.751 | 0.746 | 0.834 | 0.62 | 0.173 | 0.205 | 0.235 | 0.203 | 0.967 | 0.446 | 0.26 | 0.248 | 0.525 | 0.384 | 0.309 | 0.145 | 0.716 | 0.636 | 0.458 | 0.0682 |
| LC-2-ad | 0.484 | 0.383 | 0.414 | 0.345 | 0.527 | 0.491 | 0.472 | 0.411 | 0.44 | 0.275 | 0.288 | 0.238 | 0.449 | 0.363 | 0.224 | 0.193 | 0.708 | 0.647 | 0.304 | 0.196 |
| NCI-H2085 | 0.808 | 0.637 | 0.598 | 0.404 | 0.465 | 0.44 | 0.379 | 0.381 | 0.865 | 0.693 | 0.471 | 0.328 | 0.702 | 0.664 | 0.597 | 0.264 | 0.834 | 0.772 | 0.629 | 0.292 |
| NCI-H650 |  |  | 0.767 | 0.58 | 0.317 | 0.341 | 0.335 | 0.35 | 0.6 | 0.368 | 0.222 | 0.22 | 0.366 | 0.436 | 0.223 | 0.165 | 0.396 | 0.399 | 0.215 | 0.146 |
| EMC-BAC-2 | 0.279 | 0.345 | 0.32 | 0.25 | 0.529 | 0.501 | 0.553 | 0.505 | 0.67 | 0.36 | 0.163 | 0.151 | 0.565 | 0.251 | 0.208 | 0.163 | 0.502 | 0.301 | 0.261 | 0.203 |
| NCI-H322M | 0.42 | 0.374 | 0.331 | 0.314 | 0.401 | 0.431 | 0.378 | 0.426 | 0.888 | 0.611 | 0.446 | 0.337 | 0.65 | 0.486 | 0.414 | 0.387 | 0.834 | 0.58 | 0.518 | 0.453 |
| SK-MES-1 | 0.925 | 0.929 | 0.648 | 0.536 | 0.35 | 0.257 | 0.327 | 0.293 | 1.02 | 0.883 | 0.84 | 0.256 | 0.748 | 0.595 | 0.318 | 0.243 | 0.783 | 0.677 | 0.415 | 0.144 |
| NCI-H727 | 0.616 | 0.51 | 0.493 | 0.424 | 0.615 | 0.513 | 0.586 | 0.476 | 0.813 | 0.461 | 0.27 | 0.323 | 0.39 | 0.447 | 0.298 | 0.39 | 0.84 | 0.768 | 0.494 | 0.496 |
